This is an account of results in patent US11142539B2, “Phosphinogold(I) complexes and methods of treating cancer” (King Fahd University of Petroleum and Minerals, priority 2020, dated 2021).

Usually IC50 stands for the concentration that inhibits the measured activity by half.

Entries after “also recorded” stand apart in the source; their conditions may differ.

In assay [1] the test system is HeLa (human cervical cancer) cell line. The experiment in a line: Cell Titer-Glo luminescence-based cell growth inhibition assay, HeLa. The note with it: HeLa cells, 72 hours incubation, spread in brackets. As for the experimental part:
(§1) The cell growth inhibition effects of gold(I) complexes 1-4 and cisplatin were measured by the Cell Titer-Glo® luminescence-based assay against the A549 (human lung carcinoma), HeLa (human cervical cancer), and HepG2 (human liver cancer) cell lines according to manufacturer's protocol. Briefly, the cell suspensions were added to each well of 384-w plate at a suitable density (total volume of 40 μL). The margin wells of plate were filled with PBS buffer. The gold(I) complexes were added at various concentrations in triplicate (10 μL solutions of the complex added to the plate), then the plate was incubated for 72 hours in 5% CO2 incubator at 37° C. After that the Cell Titer reagent was added to each tested well and stirred for 2 minutes on an orbital shaker. […] Luminescence signals were measured on PHERAstar Plus. […] The potential effect of the testing complexes on cell growth inhibition expressed as IC50 values was calculated by the formula below: Cell growth Inhibition %=100-100*(Luminescencecomplex)/(LuminescenceDMSO) Cell viability %=100*(Luminescencecomplex)/(LuminescenceDMSO)
(§2) The gold(I) complexes 1-4 and cisplatin were examined for their cell growth inhibition effects against A549, HeLa, and HepG2 human cancer cell lines using Cell Titer-Glo® luminescence-based assay. […]

Assay [2] concerns HepG2 (human liver cancer) cell line. The experiment in a line: Cell Titer-Glo luminescence-based cell growth inhibition assay, HepG2. The note with it: HepG2 cells, 72 hours incubation, spread in brackets. As for the experimental part: as §1, §2
A general note: ATP-based viability assays read luminescence as a measure of living cells.

For assay [3], the system named is A549, HeLa, and HepG2 human cancer cell lines. The experiment in a line: Cell Titer-Glo cell growth inhibition, summary statements over all three cell lines. The note with it: with respect to cisplatin. Format: cell-based. How it is done:
as §1, §2

In the case of `N.N.[Cl][Pt][Cl]` [Cisplatin, cisplatin], the concentration for half-maximal inhibition (IC50) in assay [1] was 21.4 µM; in assay [2], 9.6 µM.
On to `N[C@@H]1CCCC[C@H]1[PH]([Au][Cl])(c1ccccc1)c1ccccc1` [gold(I) complex 1, [Au(ACP)Cl]], for which, in assay [3], the “inhibition of cell proliferation (in words)” value is “excellent inhibition of cell proliferation”.
Still for that read-out and setting: the result for `CN(C)C(=S)[S][Au][PH](c1ccccc1)(c1ccccc1)[C@@H]1CCCC[C@H]1N` [gold(I) complex 2] reads “excellent inhibition of cell proliferation; also recorded: best inhibition among the three”.
